Source: article PMC3111596 (Biochemistry, 2011)

Biological target: N-terminal truncated LSD1 (171–852 aa) (Homo sapiens, UniProt O60341)
Assay: LSD1-folate binding by back-scattering interferometry
Settings: N-terminal truncated LSD1 vs full-size LSD1

Nc1nc2c(c(=O)[nH]1)NC(CNc1ccc(C(=O)N[C@@H](CCC(=O)N[C@@H](CCC(=O)N[C@@H](CCC(=O)N[C@@H](CCC(=O)N[C@@H](CCC(=O)O)C(=O)O)C(=O)O)C(=O)O)C(=O)O)C(=O)O)cc1)CN2 (mixture of isomers) [(6R,S)-THF-Glu5, Tetrahydrofolate pentaglutamate]
Affinity of truncated LSD1 compared with full-size protein: same affinity as the full-size protein
